pEC50, pIC50: −log10 of the molar value.
Tests used:
Format in all cases: cell-based, human
[1] = system: MS21 (low-passage patient-derived GBM line); test: Drug screening of MS21 tumor foci on OBSCs
In short: (§1)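 Drug effects on tumor foci grown on brain slices are quantified by bioluminescence three days after treatment, relative to untreated foci and day-one fluorescence. Efficacy versus slice toxicity is combined into a weighted drug sensitivity score.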

[2] = system: U373KO (RAD18 knockout of U373WT via CRISPR); test: Drug screening of U373KO tumor foci on OBSCs; settings: U373 KO on OBSCs
In short: as §1

[3] = system: LN229 (established GBM line); test: Drug screening of LN229 tumor foci on OBSCs
In short: as §1

[4] = system: PIS patient tumor tissue (intracranial sarcoma); test: Drug screening of uncultured patient tumor tissue PIS on OBSCs; settings: PIS patient tissue; scale -100 to +100
Method: Tumor cells were seeded onto OBSCs 2h after slicing as described above. One day after tumor seeding, six concentrations of each drug were diluted in the media underneath each culture insert, or XRad was applied using an X-Rad 320 Precision X-ray machine (n = 4 tumor foci per concentration; n ≥ 24 tumor foci per drug per cell line). Three days after treatment, the bioluminescence of live tumor cells was measured using an AMI optical imager (Spectral Instruments) and dose-response curves were generated. Tumor survival was normalized to day one tumor fluorescence and compared to an untreated control group.
To engraft onto OBSCs, the cryopreserved/thawed or fresh brain tumor tissue was filtered through a 100 μm cell strainer. Each 50 mg of tissue was transfected with 1mL mcherry-FLuc Lentivirus at 1.5e7 vg/ml with 1μL polybrene for 4h at 37°C. After incubation, the brain tumor tissue was washed with PBS three times to remove the residual virus and reconstituted in PBS with a final volume of 150 μL. Then the tissue solution was engrafted atop OBSCs at ∼0.5 mg tissue in 3 μL of PBS on each hemisphere of the slice. The OBSC engrafted with patient tumor tissue was incubated at 37°C with 5% CO2 and 95% humidity. The BSM was changed after 24h and subsequently every 3 days. Tumor treatment studies were executed as described above for tumor lines. The viability of the patient tissue was measured by an AMI optical imaging system with the addition of 1.5 mg/mL luciferin underneath the culture insert.
Several weighted parameters were factored into an overall drug sensitivity score.
For DSS parameters 1–6, therapeutic windows were calculated by comparing OBSC toxicity and tumor response at the doses where tumor kill passed through the DSS parameter (Table S1 and S3). For DSS parameter 7, the therapeutic window was calculated by comparing the slopes through the tumor EC50 and the OBSC tox EC50. For DSS parameter 8, the therapeutic window was calculated by comparing the areas under tumor kill and OBSC tox curves. Normalized therapeutic window ratios for DSS parameters 1–8 within each drug-tumor-OBSC interaction were calculated in the following manner: within each window, values ranged from +1 to −1, where values approaching +1 signify increasing tumor kill relative to normal tissue toxicity, and values approaching −1 indicate agents where tumors remained highly viable while toxicity to the normal OBSC tissue was elevated. DSS parameters 9–11 were determined based on the behavior of the tumor in response to the drug, as defined above.
All individually weighed parameters were added together to generate the DSS. Overall DSS from 0 to 100 signify increasing efficacy in tumor kill relative to OBSC toxicity, while scores from 0 to −100 describe scenarios in which tumors thrive more effectively than OBSCs for a given treatment. Dose-response values were calculated via linear interpolation of raw data, not from best-fit curve equations.

[5] = system: GBM8 (high-passage patient-derived GBM line); test: Drug screening of GBM8 tumor foci on OBSCs
In short: as §1

[6] = system: MB231Br (breast cancer metastasis to brain); test: Drug screening of MB231Br tumor foci on OBSCs
[7] = system: PDIPG (low-passage pediatric patient-derived line); test: Drug screening of PDIPG tumor foci on OBSCs
In short: as §1

[8] = system: U373WT (wild-type established GBM line); test: Drug screening of U373WT tumor foci on OBSCs
In short: as §1

[9] = area under the dose-response curve, trapezoidal rule
[10] = dose required to kill 10% of the tumor
[11] = dose required to kill 25% of the tumor

For `COc1cc([C@@H]2c3cc4c(cc3[C@@H](O[C@@H]3O[C@@H]5CO[C@@H](C)O[C@H]5[C@H](O)[C@H]3O)[C@H]3COC(=O)[C@H]23)OCO4)cc(OC)c1O` [Etoposide], the pEC50 ([1]; Homo sapiens) was under 5.00, the EC90 ([1]; Homo sapiens) was over 10 µM and the “Killing at highest dose” value ([1]; MS21 on OBSCs) was -8.00E-02 fraction of tumor population killed. It also gave an AUC ([1]; MS21 on OBSCs, area under the dose-response curve, trapezoidal rule) of 1.15E+03, a pEC50 ([2]; Homo sapiens, U373 MG, dose required to kill 50% of the tumor) of 4.42 and an EC90 ([2]; Homo sapiens, U373 MG, dose required to kill 90% of the tumor) of over 10 µM. The pIC50 ([2]; Homo sapiens, U373 MG, dosed day 1, survival via bioluminescence day 4, linear interpolation) was 4.42, the “Killing at highest dose” value [2] was 6.38E-01 fraction of tumor population killed and the AUC [2, 9] was 3.37E+02. For the same compound, the EC10 [2, 10] was 2.42 µM, the EC25 [2, 11] was 6.06 µM and the Slope ([2]; slope through the EC50) was -3.13E-03. The “Killing at highest dose” value [3] was 4.40E-01 fraction of tumor population killed, the pEC50 ([3]; Homo sapiens, LN-229, dose required to kill 50% of the tumor) was under 5.00 and the EC90 ([3]; Homo sapiens, LN-229, dose required to kill 90% of the tumor) was over 10 µM. For the same compound, the pIC50 ([3]; Homo sapiens, LN-229, dosed day 1, survival via bioluminescence day 4, linear interpolation) was under 5.00, the AUC [3, 9] was 6.48E+02 and the EC10 [3, 10] was 3.7 µM. For the same compound, the EC25 [3, 11] was 9.26 µM, the Slope ([3]; slope through the EC50) was -1.73E-04 and the “DSS (drug sensitivity score)” value [4] was 80. The “Killing at highest dose” value ([5]; GBM8 on OBSCs) was 1.00E+00 fraction of tumor population killed, the AUC ([5]; GBM8 on OBSCs, area under the dose-response curve, trapezoidal rule) was 8.40E+00 and the EC10 ([5]; GBM8 on OBSCs, dose required to kill 10% of the tumor) was 0.558 µM. The EC25 ([5]; GBM8 on OBSCs, dose required to kill 25% of the tumor) was 1.74 µM, the EC75 ([5]; GBM8 on OBSCs, dose required to kill 75% of the tumor) was 7.47 µM and the Slope ([5]; GBM8 on OBSCs, slope through the EC50) was -8.73E-02. For the same compound, the pEC50 ([5]; Homo sapiens) was 5.34, the EC90 ([5]; Homo sapiens) was 9.19 µM and the pIC50 ([5]; Homo sapiens) was 5.28. The pEC50 ([6]; Homo sapiens, MB231BR on OBSCs, dose required to kill 50% of the tumor) was 4.00, the EC90 ([6]; Homo sapiens, MB231BR on OBSCs, dose required to kill 90% of the tumor) was over 10 µM and the pIC50 ([6]; Homo sapiens, MB231Br on OBSCs, dosed day 1, survival via bioluminescence day 4, linear interpolation) was 4.00. The “Killing at highest dose” value ([6]; MB231BR on OBSCs) was 7.20E-01 fraction of tumor population killed, the AUC ([6]; MB231BR on OBSCs, area under the dose-response curve, trapezoidal rule) was 4.75E+02 and the EC10 ([6]; MB231BR on OBSCs, dose required to kill 10% of the tumor) was 5.26 µM. It also gave an EC25 ([6]; MB231BR on OBSCs, dose required to kill 25% of the tumor) of 25 µM, a Slope ([6]; MB231BR on OBSCs, slope through the EC50) of -3.00E-03 and a pEC50 ([7]; Homo sapiens) of 3.24. The EC90 ([7]; Homo sapiens) was over 10 µM, the pIC50 ([7]; Homo sapiens) was 3.24 and the “Killing at highest dose” value ([7]; PDIPG on OBSCs) was 7.50E-01 fraction of tumor population killed. It also gave an AUC ([7]; PDIPG on OBSCs, area under the dose-response curve, trapezoidal rule) of 6.75E+02, an EC10 ([7]; PDIPG on OBSCs, dose required to kill 10% of the tumor) of 222 µM and an EC25 ([7]; PDIPG on OBSCs, dose required to kill 25% of the tumor) of 242 µM. It also gave an EC75 ([7]; PDIPG on OBSCs, dose required to kill 75% of the tumor) of 1000 µM, a Slope ([7]; PDIPG on OBSCs, slope through the EC50) of -5.87E-04 and a pEC50 ([8]; Homo sapiens, U373 MG, U373 WT on OBSCs, dose required to kill 50% of the tumor) of 3.59. For the same compound, the EC90 ([8]; Homo sapiens, U373 MG, U373 WT on OBSCs, dose required to kill 90% of the tumor) was over 10 µM, the pIC50 ([8]; Homo sapiens, U373 MG, U373 WT on OBSCs, dosed day 1, survival via bioluminescence day 4, linear interpolation) was 3.59 and the “Killing at highest dose” value ([8]; U373 WT on OBSCs) was 3.30E-01 fraction of tumor population killed. It also gave an AUC ([8]; U373 WT on OBSCs, area under the dose-response curve, trapezoidal rule) of 6.12E+02, an EC10 ([8]; U373 WT on OBSCs, dose required to kill 10% of the tumor) of 25.6 µM and an EC25 ([8]; U373 WT on OBSCs, dose required to kill 25% of the tumor) of 65.4 µM. The Slope ([8]; U373 WT on OBSCs, slope through the EC50) was -1.26E-04 and the “DSS (drug sensitivity score)” value ([8]; U373 WT, scale -100 to +100, tumor kill relative to OBSC toxicity) was −13.

From article PMC10313921, “A living ex vivo platform for functional, personalized brain cancer diagnosis” (Cell Reports Medicine, 2023)
